Where “and” joins values, the source holds several entries; their conditions need not be identical. Identical values can stand only once.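 Following 48 hours of exposure in 96-well plates, responses at five concentrations were used to interpolate endpoints linearly. At the GI50, growth is halved. TGI: total growth inhibition.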
Experiments:
Assay in all cases: NCI-60 cell line screen, 48 h
SNB-19 CNS = test system: SNB-19 CNS
OVCAR-8 ovarian = test system: OVCAR-8 ovarian
HS 578T breast = test system: HS 578T breast
RPMI-8226 leukemia = test system: RPMI-8226 leukemia
HCT-116 colon = test system: HCT-116 colon
SF-268 CNS = test system: SF-268 CNS
RXF 393 renal = test system: RXF 393 renal
K-562 leukemia = test system: K-562 leukemia
HT29 colon = test system: HT29 colon
NCI-H460 lung = test system: NCI-H460 lung

Compound	TGI (SNB-19 CNS)	TGI (OVCAR-8 ovarian)	GI50 (HS 578T breast)	TGI (HS 578T breast)	GI50 (RPMI-8226 leukemia)	TGI (RPMI-8226 leukemia)	GI50 (HCT-116 colon)	TGI (HCT-116 colon)	GI50 (SF-268 CNS)	TGI (SF-268 CNS)	GI50 (RXF 393 renal)	TGI (RXF 393 renal)	GI50 (K-562 leukemia)	TGI (K-562 leukemia)	GI50 (HT29 colon)	TGI (HT29 colon)	GI50 (NCI-H460 lung)	TGI (NCI-H460 lung)	GI50 (SNB-19 CNS)	GI50 (OVCAR-8 ovarian)
O=c1[nH]c(=O)n(C2OC(CO)C(O)C2O)cc1F (stereo not given)	> 100 µM	> 100 µM	0.031 µM	> 100 µM	0.0742 µM	44.8 µM	0.00778 µM	7.27 µM	0.0491 µM	> 100 µM	0.04 nM	2.45 µM	0.018 µM	> 100 µM	0.0697 µM	> 100 µM	0.00463 µM	1.01 µM		
CC(=O)O[C@H]1CC[C@]2(C)C3C(=O)C[C@]4(C)[C@@H](C(C)CCC(=O)O)CC[C@@]4(C)[C@@H]3CC[C@H]2C1(C)C (stereo not given in full)	> 50 µM	> 50 µM	11.9 µM	39.5 µM	9.79 µM	> 50 µM	9.37 µM	20.5 µM	21.1 µM	> 50 µM	15500 nM	> 50 µM	14.9 µM	> 50 µM	18.6 µM	> 50 µM	14.3 µM	> 50 µM	21 µM	15.7 µM
CCS(=O)(=O)N1CCN(c2ccc(Nc3ncc(C(N)=O)c(NC4CC4)n3)cc2)CC1	> 100 µM	88.1 µM	10.9 µM	57.3 µM	2.16 µM	9.82 µM	5.84 µM	> 100 µM	13.9 µM	52.9 µM	1610 nM	9.46 µM	4.94 µM	> 100 µM	6.14 µM	21.6 µM	15.3 µM	59.9 µM	38 µM	5.62 µM
Cc1cn(C2CC(O)C(COC(N)=O)O2)c(=O)[nH]c1=O (stereo not given)	> 100 µM	> 100 µM		> 100 µM		> 100 µM		> 100 µM		> 100 µM		> 100 µM		> 100 µM		> 100 µM		> 100 µM		
CCCCC[C@H]1C/C=C2/C(=O)C(Cl)=C[C@@H]2C/C=C\CCCC(=O)O1	2.68 µM	1.65 µM	1.1 µM	25 µM	0.171 µM	1.52 µM	0.201 µM	0.57 µM	0.803 µM	3.72 µM	457 nM	0.868 µM	0.116 µM	3.6 µM	0.461 µM	2.26 µM	0.629 µM	1.91 µM	0.59 µM	0.328 µM
CCC(C)C(=O)OC1CCC=C2C=CC(C)C(CCC3CC(O)CC(=O)O3)C21 (stereo not given)	> 100 µM	> 100 µM		17.4 µM		> 100 µM		> 100 µM		> 100 µM		> 80.6 µM		> 100 µM		> 100 µM		> 100 µM		
CC(=N\O)/C(C)=N/O.CC(=N\O)/C(C)=N/O.[Fe].[NH2-].c1c[nH]cn1	> 100 µM	> 100 µM	> 100 µM	> 100 µM	> 100 µM	> 100 µM	> 100 µM	> 100 µM	> 100 µM	> 100 µM	> 100000 nM	> 100 µM	> 100 µM	> 100 µM	> 100 µM	> 100 µM	> 100 µM	> 100 µM	> 100 µM	> 100 µM
C=C1C(=O)O[C@H]2[C@H]1CC/C(COC(=O)/C=C\C(=O)NCc1ccc(Cn3c(=O)sn(-c4ccc(Cl)cc4)c3=O)cc1)=C\CC[C@@]1(C)O[C@@H]21	1.67 µM	2.3 µM	0.954 µM	2.64 µM	0.27 µM	2.05 µM	0.144 µM	0.708 µM	0.71 µM	1.43 µM	476 nM	1.09 µM	0.409 µM	50 µM	0.369 µM	1.52 µM	0.811 µM	1.74 µM	0.831 µM	0.691 µM
CC(C)(C)OC(=O)N1Cc2cc3ccccc3nc2C1CO (stereo not given)	> 100 µM	> 100 µM	> 100 µM	> 100 µM	> 100 µM	> 100 µM	> 100 µM	> 100 µM	> 100 µM	> 100 µM	> 100000 nM	> 100 µM	> 100 µM	> 100 µM	> 100 µM	> 100 µM	> 100 µM	> 100 µM	> 100 µM	> 100 µM
COc1ccc2c(c1)C(=O)c1c-2n(CCCCl)c(=O)c2cc(N)ccc12	> 100 µM	> 100 µM	> 96.3 µM	> 100 µM	> 100 µM	> 100 µM	> 57.9 µM	> 100 µM	> 75.4 µM	> 100 µM	> 57300 nM	> 100 µM	> 48.7 µM	> 100 µM	> 100 µM	> 100 µM	> 100 µM	> 100 µM	> 100 µM	> 100 µM
c1ccc2c(c1)[nH]c1c3ccccc3sc21	> 100 µM	> 100 µM		> 100 µM		> 100 µM		> 100 µM		> 100 µM		> 100 µM		> 100 µM		> 100 µM		> 100 µM		
N/C(=N/S(=O)(=O)c1cc(C(=O)Nc2ccc(F)cc2)c(Cl)cc1SCc1ccccc1)Nc1ccccc1O	> 100 µM	4.14 µM	1.72 µM	3.8 µM	2.61 µM	6.1 µM	1.95 µM	4 µM	2.12 µM	5.69 µM	1930 nM	3.94 µM	1.33 µM	3.64 µM	11 µM	> 100 µM	2.93 µM	8.29 µM	4.29 µM	1.92 µM
CCC(=C(c1ccc(OCCN2CCCC2)cc1)c1ccc(OCCN2CCCC2)cc1)c1ccc(Cl)cc1	1.19 µM	1.57 µM	0.659 µM	1.52 µM	0.674 µM	1.53 µM	0.545 µM	1.05 µM	0.612 µM	1.25 µM	545 nM	1.04 µM	0.226 µM	0.751 µM	0.511 µM	1.15 µM	0.624 µM	1.18 µM	0.624 µM	0.692 µM
CCOC(=O)c1ccc(NC(=O)c2cccc(NC3=C(Cl)C(=O)N(Cc4ccccc4)C3=O)c2)cc1	> 100 µM	> 100 µM	> 100 µM	> 100 µM	37.5 µM	> 100 µM	> 100 µM	> 100 µM	42.3 µM	> 100 µM	> 100000 nM	> 100 µM	33.3 µM	> 100 µM	> 100 µM	> 100 µM	> 100 µM	> 100 µM	> 100 µM	> 100 µM
O=C1c2ccccc2C(=O)c2sc(Nc3ccc([N+](=O)[O-])cc3)nc21	25.7 µM	13.7 µM		22.2 µM		9.1 µM		15.2 µM		12.2 µM		9.71 µM		5.98 µM		57.7 µM		34.4 µM		
CCN(CC)CCCNc1cc(OC)c(OC)c2cccnc12	45 µM	35.5 µM	7.3 µM	42.8 µM	11.2 µM	40.7 µM	2.18 µM	7.58 µM	14.4 µM	46.3 µM	19100 nM	34.3 µM	5.22 µM	> 100 µM	13.4 µM	40.3 µM	1.47 µM	16.9 µM	13.1 µM	13.3 µM
NC(=O)c1ncn2c(=O)n(CCCl)nnc12	995 µM	426 µM		695 µM		1250 µM		369 µM	10.7 µM	> 45 µM and 709 µM		337 µM		642 µM		367 µM		221 µM	69 µM	

From PubChem BioAssay (NCI)
